Experimental data published in patent publication US6149912A (priority 1998, dated 2000).
Like-named read-outs stand apart in the source and are kept apart here.

Experiments:
S. typhimurium SL1344 [1] = type: in vivo, Salmonella typhimurium (in CF-1 mice); conditions: for survival, illness, weight loss and infection after multiple treatment (in words): multiple i.p. treatment, 5 days after infection / 12 day observation; for animals protected against massive doses: single or multiple injections, 25 LD50 i.p.; for protective activity against bacterial infection (in words): glycoalkaloid vs aglycon, 8 LD50 i.p.
[2] = LD50 (acute toxicity) in mice; conditions: mouse, in vivo, 0.03-0.3 mg/kg vs LD50 42 mg/kg, read-out: effective dose relative to LD50 (times lower)
mice = conditions: cited from earlier work
[3] = in vivo; cited from earlier work
S. typhimurium = conditions: mouse, in vivo; cited from earlier work
S. typhimurium SL1344 [4] = test system: S. typhimurium SL1344; design: species or system Salmonella typhimurium (in CF-1 mice); conditions: mouse, in vivo
[5] = 1 μg (or 0.5 μg + 0.5 μg) i.p. 3 times every other day before i.p. challenge (3.5 × 10^3 CFU, 25 LD50), 5 days post challenge
[6] = 1 μg (or 0.5 μg + 0.5 μg) i.p. 3 times every other day before i.p. challenge (25 LD50), 5 days post challenge, p < 0.001 vs control
[7] = single 1 μg dose five days prior to challenge with 25 LD50
[8] = solanine 1 μg, solanidine or diosgenin 0.5 μg/mouse, inguinal pocket, 5 days before i.p. challenge (1.2 × 10^3 CFU, 8 LD50), 5 days post challenge
[9] = solanine 1 μg, solanidine or diosgenin 0.5 μg/mouse, inguinal pocket, 5 days before i.p. challenge (8 LD50), 5 days post challenge

Structure (SMILES)	Survival rate (S. typhimurium SL1344 [1]; [5])	Liver Culture (S. typhimurium SL1344 [1]; [6]) [CFU/500 mg × 10^6]	Spleen Culture (S. typhimurium SL1344 [1]; [6]) [CFU/100 mg × 10^6]	survival, illness, weight loss and infection after multiple treatment (in words) (S. typhimurium SL1344 [1]; 25 LD50)	Survival rate (S. typhimurium SL1344 [1]; [7])	animals protected against massive doses (S. typhimurium SL1344 [1])	LD50 (mice) [mg/kg]	poisoning [3]	protective activity against bacterial infection (in words) (S. typhimurium SL1344 [1])	Survival rate (S. typhimurium SL1344 [1]; [8])	Liver Culture (S. typhimurium SL1344 [1]; [9]) [CFU/500 mg × 10^6]	Spleen Culture (S. typhimurium SL1344 [1]; [9]) [CFU/100 mg × 10^6]	further results
C[C@H]1CC[C@@H]2[C@@H](C)[C@H]3[C@H](C[C@H]4[C@@H]5CC=C6C[C@@H](O[C@@H]7O[C@H](CO)[C@@H](O[C@@H]8O[C@@H](C)[C@H](O)[C@@H](O)[C@H]8O)[C@H](O)[C@H]7O[C@@H]7O[C@@H](C)[C@H](O)[C@@H](O)[C@H]7O)CC[C@]6(C)[C@H]5CC[C@]34C)N2C1 [chaconine]	8/8	0.12 ± 0.09	0.03 ± 0.01	no signs of illness or weight loss during a 12 day observation period	~75%	sixty to a hundred percent of the animals were protected	42	can cause poisoning					therapeutic index (LD50 / effective dose) [2]: 100 to 1000; LD50 (mice; listed as Chaconine): 40 to 50 mg/kg
C[C@@H]1CC[C@@]2(OC1)O[C@H]1C[C@H]3[C@@H]4CC=C5C[C@@H](O)CC[C@]5(C)[C@H]4CC[C@]3(C)[C@H]1[C@@H]2C [diosgenin, reference compound]									Neither solanidine nor diosgenin possessed any protective activity	4/10	8.5 ± 3.3	4.8 ± 1.8	
CC(=O)N[C@H]1C(O)O[C@H](CO)[C@@H](O)[C@@H]1O[C@H](C)C(=O)N[C@@H](C)C(=O)N[C@H](CCC(=O)O)C(N)=O (some centres unmarked) [muramyldipeptide]													mice protected (S. typhimurium): 50%
C[C@H]1CC[C@@H]2[C@@H](C)[C@H]3[C@H](C[C@H]4[C@@H]5CC=C6C[C@@H](O)CC[C@]6(C)[C@H]5CC[C@]34C)N2C1 [solanidine, reference compound]									Neither solanidine nor diosgenin possessed any protective activity	3/10	5.3 ± 2.4	1.7 ± 0.6	
C[C@H]1CC[C@@H]2[C@@H](C)[C@H]3[C@H](C[C@H]4[C@@H]5CC=C6C[C@@H](O[C@@H]7O[C@H](CO)[C@H](O)[C@H](O[C@@H]8O[C@H](CO)[C@@H](O)[C@H](O)[C@H]8O)[C@H]7O[C@@H]7O[C@@H](C)[C@H](O)[C@@H](O)[C@H]7O)CC[C@]6(C)[C@H]5CC[C@]34C)N2C1 [solanine]	8/8	0.08 ± 0.07	0.08 ± 0.02	no signs of illness or weight loss during a 12 day observation period	approximately 40%	sixty to a hundred percent of the animals were protected	42	can cause poisoning	only solanine was able to effectively protect mice against the bacterial infection	9/10	0.8 ± 0.5	0.8 ± 0.5	Fecal Culture (S. typhimurium SL1344 [4]): 20.0 ± 3.5; Liver Culture (S. typhimurium SL1344 [4]): 0.3 ± 0.1; Spleen Culture (S. typhimurium SL1344 [4]): 2.0 ± 0.2; Survival rate (S. typhimurium SL1344 [4]): 5/5; animals with enhanced resistance to infection (FIG. 1) (S. typhimurium SL1344 [1]; single 0.1, 1.0 or 10.0 μg, challenge (25 LD50) 1, 7 or 14 days later): 40-70%; duration of enhanced host resistance (S. typhimurium SL1344 [1]; single treatment, 1.0 and 10.0 μg, 25 LD50): at least 2 weeks; LD50 (mice; listed as Solanine): 40 to 50 mg/kg
